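Dose response: 5 concentrations. Exposure: 48 h. Format: 96-well plates. Endpoint: linear interpolation; highest concentration if not reached. Abbreviation: GI50, concentration required for 50% inhibition of growth. At the TGI there is no net growth.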
What was measured:
Assay in all cases: inhibition of tumour cell growth, NCI panel, 48 h
HS 578T breast = test system: HS 578T breast
A549 NSCLC = test system: A549 NSCLC
MDA-MB-468 breast = test system: MDA-MB-468 breast
SK-OV-3 ovarian = test system: SK-OV-3 ovarian
UACC-62 melanoma = test system: UACC-62 melanoma
RPMI-8226 leukemia = test system: RPMI-8226 leukemia
MDA-MB-231 breast = test system: MDA-MB-231 breast
SF-295 CNS = test system: SF-295 CNS
IGROV1 ovarian = test system: IGROV1 ovarian
M14 melanoma = test system: M14 melanoma
DU-145 prostate = test system: DU-145 prostate
HT29 colon = test system: HT29 colon
UO-31 renal = test system: UO-31 renal
SR leukemia = test system: SR leukemia
OVCAR-4 ovarian = test system: OVCAR-4 ovarian
BT-549 breast = test system: BT-549 breast
SK-MEL-28 melanoma = test system: SK-MEL-28 melanoma
EKVX NSCLC = test system: EKVX NSCLC
PC-3 prostate = test system: PC-3 prostate
COLO 205 colon = test system: COLO 205 colon
OVCAR-3 ovarian = test system: OVCAR-3 ovarian
HCT-15 colon = test system: HCT-15 colon
NCI-H23 lung = test system: NCI-H23 lung
ACHN renal = test system: ACHN renal
HCT-116 colon = test system: HCT-116 colon
T-47D breast = test system: T-47D breast
SK-MEL-2 melanoma = test system: SK-MEL-2 melanoma
HL-60(TB) leukemia = test system: HL-60(TB) leukemia
SF-268 CNS = test system: SF-268 CNS
NCI-H460 lung = test system: NCI-H460 lung

COc1ccc(-c2nc(S(=O)(=O)c3ccc(C)cc3)c(S(=O)(=O)CC(=O)N(C)Cc3ccccc3)o2)cc1
TGI (HS 578T breast): 33.5 µM
GI50 (A549 NSCLC): 14.6 µM
TGI (A549 NSCLC): 33.6 µM
GI50 (MDA-MB-468 breast): 2.41 µM
TGI (MDA-MB-468 breast): 8 µM
GI50 (SK-OV-3 ovarian): 30.5 µM
TGI (SK-OV-3 ovarian): > 100 µM
GI50 (UACC-62 melanoma): 11.7 µM
TGI (UACC-62 melanoma): 23.9 µM
GI50 (RPMI-8226 leukemia): 4.45 µM
TGI (RPMI-8226 leukemia): > 100 µM
GI50 (MDA-MB-231 breast): 9.27 µM
TGI (MDA-MB-231 breast): 21.6 µM
GI50 (SF-295 CNS): 12.7 µM
TGI (SF-295 CNS): 25.5 µM
GI50 (IGROV1 ovarian): 11.1 µM
TGI (IGROV1 ovarian): 23.5 µM
GI50 (M14 melanoma): 12.4 µM
TGI (M14 melanoma): 30.8 µM
GI50 (DU-145 prostate): 10.2 µM
TGI (DU-145 prostate): 21.8 µM
GI50 (HT29 colon): 9.39 µM
TGI (HT29 colon): 30.5 µM
GI50 (UO-31 renal): 10.3 µM
TGI (UO-31 renal): 22 µM
GI50 (SR leukemia): 3.27 µM
TGI (SR leukemia): > 100 µM
GI50 (OVCAR-4 ovarian): 14.2 µM
TGI (OVCAR-4 ovarian): 36.7 µM
GI50 (BT-549 breast): 12.3 µM
TGI (BT-549 breast): 26 µM
GI50 (SK-MEL-28 melanoma): 14.3 µM
TGI (SK-MEL-28 melanoma): 27.3 µM
GI50 (EKVX NSCLC): 11.7 µM
TGI (EKVX NSCLC): 25.2 µM
GI50 (PC-3 prostate): 12.1 µM
TGI (PC-3 prostate): 44.9 µM
GI50 (COLO 205 colon): 12.2 µM
TGI (COLO 205 colon): 41.7 µM
GI50 (OVCAR-3 ovarian): 4.25 µM
TGI (OVCAR-3 ovarian): 16.2 µM
GI50 (HCT-15 colon): 6.17 µM
TGI (HCT-15 colon): 20.8 µM
GI50 (NCI-H23 lung): 12.5 µM
TGI (NCI-H23 lung): 25.7 µM
GI50 (ACHN renal): 10.8 µM
TGI (ACHN renal): 22.7 µM
GI50 (HCT-116 colon): 5.02 µM
TGI (HCT-116 colon): 19.6 µM
GI50 (T-47D breast): 6.28 µM
TGI (T-47D breast): 25.2 µM
GI50 (SK-MEL-2 melanoma): 13.8 µM
TGI (SK-MEL-2 melanoma): 27.4 µM
GI50 (HL-60(TB) leukemia): 16.3 µM
TGI (HL-60(TB) leukemia): > 100 µM
GI50 (SF-268 CNS): 12.1 µM
TGI (SF-268 CNS): 29.7 µM
GI50 (NCI-H460 lung): 8.2 µM
TGI (NCI-H460 lung): 23.3 µM

Reference: PubChem BioAssay (NCI)
